{
  "source": "patent US20070232567A1",
  "about": "“Formulations Of Low Dose Non-Steroidal Anti-Inflammatory Drugs And Beta-Cyclodextrin” (priority 2006, published 2007)",
  "system": "patients with moderate-to-severe post-surgical (dental) pain",
  "assay": "Randomized, double-blind, single-dose, placebo- and comparator-controlled study of pain relief by administered dose",
  "type": "in vivo, human",
  "protocol": "A 336-patient, seven treatment arm, randomized, double-blind, single-dose, and placebo- and comparator-controlled, parallel-group study was conducted. Patients were randomly assigned to receive a single dose of either diclofenac sodium solubilized with hydroxypropyl-beta-cyclodextrin (hereinafter “DIC”), ketorolac tromethamine, or placebo.\nBolus IV injectable 2 ml solutions were prepared by solubilizing diclofenac sodium with hydroxypropyl-beta-cyclodextrin. The formulation strengths were as follows: • Formulation: Diclofenac sodium solubilized with hydroxypropyl-β-cyclodextrin • Strengths: 75 mg, 37.5 mg, 18.75 mg, 9.4 mg and 3.75 mg • Dosage: Bolus IV injection (no less than 15 sec) • Batch Number: 063004 (PPS4010) • Manufacturer: Manufactured for Javelin by Precision Pharma • Storage Conditions: Room temperature\nActive Control/Comparator: • Formulation: Ketorolac Tromethamine • Strength: 30 mg • Dosage: Bolus IV injection (no less than 15 sec) • Batch Number: 21-430-DK • Manufacturer: Abbott Labs • Storage Conditions: Room temperature\nPain was assessed by each patient at Baseline (0 hour: Visual Analog Scale (VAS) and categorical pain intensity only), at 5, 15, 30 and 45 minutes, and at 1, 1.5, 2, 3, 4, 5, 6, 7, 8, 10, 12 and 24 hours after administration of study medication and immediately prior to the first dose of rescue medication. At each post-dose time period, levels of pain intensity (categorical and VAS) and pain relief (categorical and VAS) was assessed by each patient. […]\nThe presence of a dose-response was tested with a step-down testing procedure. Total pain relief (TOTPAR), peak pain relief, pain intensity difference (SPID), summed peak reduction in pain intensity difference (SPRID), and patient global evaluation was analyzed with analysis of variance (ANOVA) with treatment, center, and baseline categorical pain intensity as factors. […] Time to onset of perceptible relief and time to onset of meaningful relief was analyzed with survival analysis techniques. […] A 95% confidence interval for each estimated median time to event was calculated. […]",
  "data": [
    {"smiles": "O=C(c1ccccc1)c1ccc2n1CCC2C(=O)O", "note": "(stereo not drawn) [ketorolac, ketorolac tromethamine]", "values": [
      {"measurement": "% Maximum Effect (TOTPAR)", "setting": "30 mg single bolus IV injection (active comparator)", "value": 100, "unit": "%"},
      {"measurement": "TOTPAR (Sum of Pain Relief VAS 0–100 mm ratings 0–6 hours)", "setting": "30 mg single bolus IV injection (active comparator), value (SEM)", "value": "400.3 (SEM 36)"},
      {"measurement": "peak analgesic response compared with that of diclofenac (about 80% pain relief)", "setting": "30 milligrams", "value": "Similar"}
    ]}
  ]
}
